Assay results taken from patent publication US8431702B2, “Therapeutically useful substituted hydropyrido [3,2,1-ij] quinoline compounds” (Allergan, Inc., priority 2008, dated 2013).
Read-outs that look alike come from different tables or passages of the source.

Molecular target: T1, human S1P3 receptor (Homo sapiens, UniProt Q99500)
T1 construct: expressed in transfected cells
Assay: FLIPR calcium (Fluo-4) assay for activation or block of activation of human S1P3 receptor in T24 cells
Assay type: cell-based
Method: The compounds of the invention are assessed for their ability to activate or block activation of the human S1P3 receptor in T24 cells stably expressing the human S1P3 receptor using the method described in paragraph [0067] of United States Patent Application Publication No. 20070232682, which published on Oct. 4, 2007, which is hereby incorporated by reference in its entirety.
Ten thousands cells/well are plated into 384-well poly-D-lysine coated plates one day prior to use. The growth media for the S1P3 receptor expressing cell line is McCoy's 5A medium supplemented with 10% charcoal-treated fetal bovine serum (FBS), 1% antibiotic-antimycotic and 400 μg/ml geneticin. On the day of the experiment, the cells are washed twice with Hank's Balanced Salt Solution supplemented with 20 mM HEPES (HBSS/Hepes buffer). The cells are then dye loaded with 2 μM Fluo-4 diluted in the HBSS/Hepes buffer with 1.25 mM Probenecid and incubated at 37° C. for 40 minutes. Extracellular dye is removed by washing the cell plates four times prior to placing the plates in the FLIPR (Fluorometric Imaging Plate Reader, Molecular Devices). Ligands are diluted in HBSS/Hepes buffer and prepared in 384-well microplates. The positive control, Sphingosine-1-phosphate (S1P), is diluted in HBSS/Hepes buffer with 4 mg/ml fatty acid free bovine serum albumin. The FLIPR transfers 12.5 μl from the ligand microplate to the cell plate and takes fluorescent measurements for 75 seconds, taking readings every second, and then for 2.5 minutes, taking readings every 10 seconds. Compounds are tested over the concentration range of 0.61 nM to 10,000 nM. Data for calcium ion (Ca^+2) responses are obtained in arbitrary fluorescence units and not translated into Ca^+2 concentrations. IC50 values (nM) are determined through a […] analysis using the Levenburg Marquardt algorithm.

[1] = T24 cells stably expressing the human S1P3 receptor, tested over 0.61 nM to 10,000 nM
[2] = T24 cells stably expressing the human S1P3 receptor, tested over 0.61 nM to 10,000 nM, read-out: S1P3 IC50

T1 sequence (Q99500 whole entry): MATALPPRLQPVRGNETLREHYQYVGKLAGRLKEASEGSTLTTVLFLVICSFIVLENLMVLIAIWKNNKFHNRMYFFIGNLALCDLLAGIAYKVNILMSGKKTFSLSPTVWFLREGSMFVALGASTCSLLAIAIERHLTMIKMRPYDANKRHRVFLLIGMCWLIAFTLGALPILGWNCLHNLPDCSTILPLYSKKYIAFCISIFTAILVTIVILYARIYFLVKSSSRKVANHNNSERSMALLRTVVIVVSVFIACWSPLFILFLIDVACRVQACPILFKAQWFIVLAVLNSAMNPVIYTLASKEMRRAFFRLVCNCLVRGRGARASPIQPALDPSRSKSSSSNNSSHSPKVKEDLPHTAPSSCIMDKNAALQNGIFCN

**Q.** For `CCCCNC(=O)Nc1cc2c3c(c1)C(c1ccccc1)CCN3CCC2c1ccccc1` (stereo not shown) [Compound 485, 1-Butyl-3-(1,7-diphenyl-1,2,3,5,6,7-hexahydropyrido[3,2,1-ij]quinolin-9-yl)urea], which “S1P3 % Inhibition” value [1] is on record?
**A.** 100%

**Q.** What does the source list for `COC(=O)Nc1cc2c3c(c1)C(c1ccc(F)cc1)CCN3CCC2c1ccc(F)cc1` (stereo not shown) [Compound 268]?
**A.** S1P3 % Inhibition [1]: 98%; IC50 [2]: 5 nM

**Q.** What does the source list for `CCCSC(=O)Nc1cc2c3c(c1)[C@](C)(c1ccc(F)cc1)CCN3CC[C@@]2(C)c1ccc(F)cc1` [Compound 673, S-propyl (1S,7S)-1,7-bis(4-fluorophenyl)-1,7-dimethyl-1,2,3,5,6,7-hexahydropyrido[3,2,1-ij]quinolin-9-ylcarbamothioate]?
**A.** IC50: 62 nM; S1P3 % Inhibition [1]: 97%

**Q.** Which “S1P3 % Inhibition” value [1] does the source give for `O=C(Nc1cc2c3c(c1)C(c1ccc(F)cc1)CCN3CCC2c1ccc(F)cc1)OCCF` (stereo not shown) [Compound 067] here?
**A.** 98%

**Q.** What about the IC50 [2] of the same compound?
**A.** 8 nM

**Q.** With `C=CCNC(=O)Nc1cc2c3c(c1)C(c1ccccc1)CCN3CCC2c1ccccc1` (stereo not shown) [Compound 773, 1-allyl-3-(1,7-diphenyl-1,2,3,5,6,7-hexahydropyrido[3,2,1-ij]quinolin-9-yl)urea] as the compound, how does the “S1P3 % Inhibition” value [1] read?
**A.** 100%

**Q.** `CCCCOC(=O)Nc1cc2c3c(c1)C(c1ccccc1)CCN3CCC2c1ccccc1` (stereo not shown) [Compound 276, Butyl 1,7-diphenyl-1,2,3,5,6,7-hexahydropyrido[3,2,1-ij]quinolin-9-ylcarbamate] was tested. Which “S1P3 % Inhibition” value [1] did it give?
**A.** 101%

**Q.** How did the IC50 turn out when `CCOC(=O)Nc1cc2c3c(c1)[C@](C)(c1ccccc1)CCN3CC[C@@]2(C)c1ccccc1` [Compound 941, Ethyl (1S,7S)-1,7-dimethyl-1,7-diphenyl-1,2,3,5,6,7-hexahydropyrido[3,2,1-ij]quinolin-9-ylcarbamate] was run?
**A.** 13 nM

**Q.** What about the “S1P3 % Inhibition” value [1] of the same compound?
**A.** 100%

**Q.** How did the “S1P3 % Inhibition” value [1] turn out when `O=C(Nc1cc2c3c(c1)C(c1ccccc1)CCN3CCC2c1ccccc1)N1CCOCC1` (stereo not shown) [Compound 983, N-(1,7-diphenyl-1,2,3,5,6,7-hexahydropyrido[3,2,1-ij]quinolin-9-yl)morpholine-4-carboxamide] was run?
**A.** 100%

**Q.** For `CC(C)(C)NC(=O)Nc1cc2c3c(c1)[C@@](C)(c1ccccc1)CCN3CC[C@@]2(C)c1ccccc1` [Compound 580, 1-t-butyl-3-((1R,7S)-1,7-dimethyl-1,7-diphenyl-1,2,3,5,6,7-hexahydropyrido[3,2,1-ij]quinolin-9-yl)urea], which IC50 is on record?
**A.** 62 nM

**Q.** And the “S1P3 % Inhibition” value [1]?
**A.** 99%

**Q.** `CCCCOC(=O)Nc1cc2c3c(c1)C(c1cccc(F)c1)CCN3CCC2c1cccc(F)c1` (stereo not shown) [Compound 202, Butyl 1,7-bis(3-fluorophenyl)-1,2,3,5,6,7-hexahydropyrido[3,2,1-ij]quinolin-9-ylcarbamate] was tested. Which “S1P3 % Inhibition” value [1] did it give?
**A.** 98%

**Q.** For `COC(=O)Nc1cc2c3c(c1)[C@](C)(c1ccc(F)cc1)CCN3CC[C@@]2(C)c1ccc(F)cc1` [Compound 674, methyl (1S,7S)-1,7-bis(4-fluorophenyl)-1,7-dimethyl-1,2,3,5,6,7-hexahydropyrido[3,2,1-ij]quinolin-9-ylcarbamate], which IC50 is on record?
**A.** 46 nM

**Q.** And the “S1P3 % Inhibition” value [1]?
**A.** 96%

**Q.** How did the “S1P3 % Inhibition” value [1] turn out when `CCCOC(=O)Nc1cc2c3c(c1)C(c1cccc(F)c1)CCN3CCC2c1cccc(F)c1` (stereo not shown) [Compound 094, Propyl 1,7-bis(3-fluorophenyl)-1,2,3,5,6,7-hexahydropyrido[3,2,1-ij]quinolin-9-ylcarbamate] was run?
**A.** 101%

**Q.** For `CCNC(=O)Nc1cc2c3c(c1)[C@](C)(c1ccccc1)CCN3CC[C@@]2(C)c1ccccc1` [Compound 249, 1-((1S,7S)-1,7-dimethyl-1,7-diphenyl-1,2,3,5,6,7-hexahydropyrido[3,2,1-ij]quinolin-9-yl)-3-ethylurea], which “S1P3 % Inhibition” value [1] is on record?
**A.** 100%

**Q.** And the IC50 [2]?
**A.** 194 nM

**Q.** Which “S1P3 % Inhibition” value [1] does the source give for `CN(C)C(=O)Nc1cc2c3c(c1)C(c1ccccc1)CCN3CCC2c1ccccc1` (stereo not shown) [Compound 405, 3-(1,7-diphenyl-1,2,3,5,6,7-hexahydropyrido[3,2,1-ij]quinolin-9-yl)-1,1-dimethylurea] here?
**A.** 98%

**Q.** Which “S1P3 % Inhibition” value [1] does the source give for `O=C(Nc1cc2c3c(c1)C(c1ccccc1)CCN3CCC2c1ccccc1)OCCCCl` (stereo not shown) [Compound 205, 3-chloropropyl 1,7-diphenyl-1,2,3,5,6,7-hexahydropyrido[3,2,1-ij]quinolin-9-ylcarbamate] here?
**A.** 99%

**Q.** For `CCOC(=O)Nc1cc2c3c(c1)C(c1ccccc1)CCN3CCC2c1ccccc1` (stereo not shown) [Compound 273, Ethyl 1,7-diphenyl-1,2,3,5,6,7-hexahydropyrido[3,2,1-ij]quinolin-9-ylcarbamate], which “S1P3 % Inhibition” value [1] is on record?
**A.** 101%

**Q.** Which “S1P3 % Inhibition” value [1] does the source give for `O=C(NCCCl)Nc1cc2c3c(c1)C(c1ccccc1)CCN3CCC2c1ccccc1` (stereo not shown) [Compound 769, 1-(2-chloroethyl)-3-(1,7-diphenyl-1,2,3,5,6,7-hexahydropyrido[3,2,1-ij]quinolin-9-yl)urea] here?
**A.** 100%

**Q.** What does the source list for `CC(C)(C)NC(=O)Nc1cc2c3c(c1)[C@](C)(c1ccccc1)CCN3CC[C@@]2(C)c1ccccc1` [Compound 581, 1-t-butyl-3-((1S,7S)-1,7-dimethyl-1,7-diphenyl-1,2,3,5,6,7-hexahydropyrido[3,2,1-ij]quinolin-9-yl)urea]?
**A.** S1P3 % Inhibition [1]: 98%; IC50 [2]: 349 nM

**Q.** With `CCCCCCNC(=S)Nc1cc2c3c(c1)C(c1ccccc1)CCN3CCC2c1ccccc1` (stereo not shown) [Compound 256, 1-(1,7-diphenyl-1,2,3,5,6,7-hexahydropyrido[3,2,1-ij]quinolin-9-yl)-3-hexylthiourea] as the compound, how does the “S1P3 % Inhibition” value [1] read?
**A.** 100%

**Q.** `CC(C)COC(=O)Nc1cc2c3c(c1)C(c1ccccc1)CCN3CCC2c1ccccc1` (stereo not shown) [Compound 274, Isobutyl 1,7-diphenyl-1,2,3,5,6,7-hexahydropyrido[3,2,1-ij]quinolin-9-ylcarbamate] was tested. Which “S1P3 % Inhibition” value [1] did it give?
**A.** 100%

**Q.** How did the “S1P3 % Inhibition” value [1] turn out when `CCOC(=O)Nc1cc2c3c(c1)C(c1cccc(F)c1)CCN3CCC2c1cccc(F)c1` (stereo not shown) [Compound 093, Ethyl 1,7-bis(3-fluorophenyl)-1,2,3,5,6,7-hexahydropyrido[3,2,1-ij]quinolin-9-ylcarbamate] was run?
**A.** 102%

**Q.** With `CNC(=O)c1cc2c3c(c1)C(c1ccccc1)CCN3CCC2c1ccccc1` (stereo not shown) [Compound 775, N-methyl-1,7-diphenyl-1,2,3,5,6,7-hexahydropyrido[3,2,1-ij]quinoline-9-carboxamide] as the compound, how does the “S1P3 % Inhibition” value [1] read?
**A.** 100%

**Q.** And the IC50 [2]?
**A.** 619 nM
